Results from US20090149482A1, “STEREOCHEMICALLY DEFINED DIPEPTIDE ESTERS OF ANTIVIRAL AGENTS FOR ENHANCED OCULAR TREATMENT” (priority 2001, published 2009).
“And” between values parts separate entries of the source, which are not always exact repeats. Identical values can stand only once. Like-named read-outs stand apart in the source and are kept apart here.

Key:
HSV-1 = assay: In vitro antiviral screening, CPE inhibition in HFF cells; assay type: cell-based, herpes simplex virus 1
HSV-2 = assay: as above; assay type: cell-based, herpes simplex virus 2; conditions: for EC50: HSV-2, CPE Inhibition
[1] = for first order hydrolytic rate constant k: 37° C.
EBV = assay: In vitro antiviral screening, VCA Elisa; assay type: cell-based, epstein-barr virus; conditions: for EC50: EBV, VCA Elisa
[2] = tested on: rabbit corneal cell line (SIRC); conditions: SIRC cells
Caco-2 cell suspension = conditions: Caco-2, pH 7.4
VZV = assay: In vitro antiviral screening, CPE inhibition in HFF cells; assay type: cell-based, varicella zoster virus; conditions: VZV, CPE Inhibition
hPEPT1 = target: T1, hPEPT1 (Homo sapiens, UniProt P46059); assay: [3H] Glycylsarcosine uptake and its inhibition in Caco-2 cells (affinity towards peptide transporter); assay type: cell-based
T1 construct: endogenous in cells; host or cells: Caco-2 (human colon carcinoma, ATCC)
T1 sequence (P46059 1-708): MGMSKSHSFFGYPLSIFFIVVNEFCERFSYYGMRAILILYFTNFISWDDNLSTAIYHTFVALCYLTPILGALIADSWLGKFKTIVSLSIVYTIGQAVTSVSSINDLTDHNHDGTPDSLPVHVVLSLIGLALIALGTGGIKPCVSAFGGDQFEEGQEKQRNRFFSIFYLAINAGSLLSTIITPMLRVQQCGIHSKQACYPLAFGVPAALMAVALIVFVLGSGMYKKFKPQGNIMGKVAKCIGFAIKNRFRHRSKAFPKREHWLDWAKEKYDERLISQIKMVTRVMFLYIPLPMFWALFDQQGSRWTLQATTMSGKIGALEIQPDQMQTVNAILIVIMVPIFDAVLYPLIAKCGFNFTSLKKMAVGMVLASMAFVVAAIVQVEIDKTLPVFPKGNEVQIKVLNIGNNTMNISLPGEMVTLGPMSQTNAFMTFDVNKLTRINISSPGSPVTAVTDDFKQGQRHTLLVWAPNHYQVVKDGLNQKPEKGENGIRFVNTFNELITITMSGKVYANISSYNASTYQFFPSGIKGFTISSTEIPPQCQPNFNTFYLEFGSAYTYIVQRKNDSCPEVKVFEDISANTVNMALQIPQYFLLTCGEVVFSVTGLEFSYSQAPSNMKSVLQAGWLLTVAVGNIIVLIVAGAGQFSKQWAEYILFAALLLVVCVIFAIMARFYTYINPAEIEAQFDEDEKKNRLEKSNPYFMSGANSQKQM

[3] = pH 1.2, * = no measurable degradation during 7 day experiment
[4] = pH 2.6, * = no measurable degradation during 7 day experiment

CC(C)C(N)C(=O)NC(C(=O)OCCOCn1cnc2c(=O)[nH]c(N)nc21)C(C)C (stereo not drawn) [Val-Val-ACV, Val-Valacyclovir]
EC50 (HSV-1; read-out: EC50 against HSV-1): 6.14 µM
EC50 (HSV-2): 22.7 µM
first order hydrolytic rate constant k [1, 3]: 0.0062 k × 10^3 min^−1
first order hydrolytic rate constant k [1, 4]: 0.0051 k × 10^3 min^−1
stability as an ophthalmic solution ([1]; pH 5.6, concluded from rate constants): stable for two years
first order hydrolytic rate constant k ([1]; pH 7.4): 0.107 k × 10^3 min^−1
first order hydrolytic rate constant k ([1]; pH 9.0): 0.24 k × 10^3 min^−1
EC50 (EBV): 93.1 µM
percent survival ([2]; 0.25 mM): 86.3%
percent survival ([2]; 0.5 mM): 85.8%
percent survival ([2]; 1 mM): 87.0%
percent survival ([2]; 2 mM): 87.0%
% viable cells ([2]; 5 mM): 90.1±4.6%
percent survival ([2]; 5 mM): 99.3%
percent survival ([2]; 10 mM): 54.03%
10^2 × kobs (Caco-2 cell suspension): 2.14 ± 0.44 min^−1mg^−1 protein
t1/2 (Caco-2 cell suspension; human): 33.2 ± 6.9 min
t1/2 (rabbit, tissue homogenate): 84 min
EC50 (VZV): 0.09 µM
Vmax of Gly-Sar uptake in presence of the drug (hPEPT1): 0.099 ± 0.10 µmol/min/mg
IC50 (hPEPT1; read-out: IC50 of inhibition of [3H] Gly-Sar uptake): 3460 ± 210 µM
Ki (hPEPT1; read-out: Ki): 1940 µM and 1890 µM and 2510 µM

CC(C)[C@H](N)C(=O)OCCOCn1cnc2c(=O)[nH]c(N)nc21 [Val-ACV, L-Valine-acyclovir]
EC50 (HSV-1; Human alphaherpesvirus 1, HFF, read-out: EC50 (concentration required to inhibit viral cytopathogenicity by 50%), HSV-1, CPE Inhibition): 9.1 µM
EC50 (HSV-1; Human alphaherpesvirus 1, HFF, HSV-1, running text, read-out: EC50 against HSV-1): 9.1 µM
SI (Selectivity Index) = CC50/EC50 (HSV-2): SI > 35.7
EC50 (HSV-2; Human alphaherpesvirus 2, HFF): 7.77 µM
first order hydrolytic rate constant k [1, 3]: 1.22 k × 10^3 min^−1
first order hydrolytic rate constant k [1, 4]: 0.41 k × 10^3 min^−1
first order hydrolytic rate constant k ([1]; pH 4.2, * = no measurable degradation during 7 day experiment): 0.008 k × 10^3 min^−1
first order hydrolytic rate constant k ([1]; pH 5.6, * = no measurable degradation during 7 day experiment): 0.16 k × 10^3 min^−1
first order hydrolytic rate constant k ([1]; pH 7.4): 0.67 k × 10^3 min^−1
first order hydrolytic rate constant k ([1]; pH 9.0): 1.63 k × 10^3 min^−1
SI (Selectivity Index) = CC50/EC50 (EBV): SI > 250
EC50 (EBV; human gammaherpesvirus 4): 0.55 µM
% viable cells ([2]; 5 mM): 89.3±5.1%
10^2 × kobs (Caco-2 cell suspension; human): 0.56 ± 0.038 min^−1mg^−1 protein
hydrolytic rate constant k (Aqueous Humor): 21.8 (±1.2) k × 10^3 min^−1 mg^−1 protein
hydrolytic rate constant k (Cornea homogenate): 8.1 (±1.2) k × 10^3 min^−1 mg^−1 protein
hydrolytic rate constant k (Iris-Ciliary Body homogenate): 283.1 (±19.7) k × 10^3 min^−1 mg^−1 protein
hydrolytic rate constant k (Lens homogenate): 10.1 (±0.3) k × 10^3 min^−1 mg^−1 protein
hydrolytic rate constant k (Vitreous Humor): 7.1 (±0.9) k × 10^3 min^−1 mg^−1 protein
EC50 (VZV; Human alphaherpesvirus 3, HFF): < 0.08 µM
Ki (hPEPT1): 1410 ± 560 µM
Vmax of Gly-Sar uptake in presence of the drug (hPEPT1): 0.081 ± 0.09 µmol/min/mg
